One experiment has as its target T1, mTOR kinase (Homo sapiens, UniProt P42345).
T1 construct: purchased Invitrogen PV4753
Briefly: mTOR LanthaScreen TR-FRET assay. The format is biochemical. To be noted: 10 μmol/L ATP, GFP-4EBP1 substrate; read-out: IC50, inhibition of mTOR. As to the method:
Compounds are tested using LanthaScreen TR-FRET Assay. The kinase reaction is completed in 384-well black plate (Corning, Cat. 3676). The final conditions for kinase assay are: 10 μmol/L of ATP, 0.2 ng/μL of mTOR kinase, 0.4 μmol/L of GFP-4EBP1 substrate and assay buffer (50 mmol/L of HEPES, pH 7.5, 0.01% of Tween 20, 1 mmol/L of EGTA, 10 mmol/L of MnCl2, 2 mmol/L of DTT and 1% DMSO).
To each well, 2.5 μL of test compounds in 4% DMSO and 2.5 μL of 0.8 ng/μL mTOR kinase (Invitrogen, PV4753) diluted in assay buffer are added. The reaction is initiated by the addition of 5 μL mixture of 0.8 μmol/L GFP-4EBP1 Substrate (Invitorgen, PV4759) and 20 μmol/L ATP mixtures. The mixture is incubated at room temperature for 60 minutes. 10 μL of 20 mmol/L EDTA and 4 nmol/L Tb-anti-p4EBP1 [pThr46] antibody (Invitrogen, PV4755) diluted in TR-FRET dilution buffer are added and incubated for an additional 1 hour. The plate is then read in a BioTek Synergy2 Reader at excitation of 340 nm and emission of 490 nm and 528 nm.
The inhibition of test compound is calculated based on the ratio of 528 nm/490 nm. IC50 of test compound is obtained using XLfit 2.0 software.

For the next experiment, the target named is T2, PI3Kα kinase (Homo sapiens, UniProt P42336).
T2 construct: purchased Invitrogen PV4788
T2 sequence (P42336 whole entry): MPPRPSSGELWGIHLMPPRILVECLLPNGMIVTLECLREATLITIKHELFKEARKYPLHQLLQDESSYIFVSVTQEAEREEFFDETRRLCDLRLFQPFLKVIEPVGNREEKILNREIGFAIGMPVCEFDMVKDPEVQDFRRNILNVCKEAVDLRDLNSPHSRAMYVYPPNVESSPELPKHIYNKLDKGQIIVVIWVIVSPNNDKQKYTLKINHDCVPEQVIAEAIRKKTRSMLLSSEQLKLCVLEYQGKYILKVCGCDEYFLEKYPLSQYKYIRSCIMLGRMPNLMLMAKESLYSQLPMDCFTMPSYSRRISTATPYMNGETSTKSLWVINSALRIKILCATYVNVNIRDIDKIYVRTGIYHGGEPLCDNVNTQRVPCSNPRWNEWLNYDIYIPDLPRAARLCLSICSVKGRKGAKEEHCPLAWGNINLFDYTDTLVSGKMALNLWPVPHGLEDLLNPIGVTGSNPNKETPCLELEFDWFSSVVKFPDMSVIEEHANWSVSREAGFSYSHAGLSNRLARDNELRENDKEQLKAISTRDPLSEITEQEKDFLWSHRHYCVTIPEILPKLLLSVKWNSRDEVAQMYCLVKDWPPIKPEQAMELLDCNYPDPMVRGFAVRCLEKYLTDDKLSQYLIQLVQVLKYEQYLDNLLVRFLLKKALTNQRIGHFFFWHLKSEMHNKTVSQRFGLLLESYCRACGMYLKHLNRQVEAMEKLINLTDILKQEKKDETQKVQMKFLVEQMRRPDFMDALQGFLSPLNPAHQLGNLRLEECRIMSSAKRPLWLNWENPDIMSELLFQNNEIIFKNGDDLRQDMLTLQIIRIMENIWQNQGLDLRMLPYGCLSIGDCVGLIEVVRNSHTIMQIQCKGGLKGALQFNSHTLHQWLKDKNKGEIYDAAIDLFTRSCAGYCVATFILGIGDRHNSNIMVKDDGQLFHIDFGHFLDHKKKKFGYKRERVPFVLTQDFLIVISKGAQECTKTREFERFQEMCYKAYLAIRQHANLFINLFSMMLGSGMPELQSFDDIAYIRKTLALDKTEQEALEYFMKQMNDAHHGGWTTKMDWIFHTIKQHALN
T2 sequence (P27986 whole entry partner): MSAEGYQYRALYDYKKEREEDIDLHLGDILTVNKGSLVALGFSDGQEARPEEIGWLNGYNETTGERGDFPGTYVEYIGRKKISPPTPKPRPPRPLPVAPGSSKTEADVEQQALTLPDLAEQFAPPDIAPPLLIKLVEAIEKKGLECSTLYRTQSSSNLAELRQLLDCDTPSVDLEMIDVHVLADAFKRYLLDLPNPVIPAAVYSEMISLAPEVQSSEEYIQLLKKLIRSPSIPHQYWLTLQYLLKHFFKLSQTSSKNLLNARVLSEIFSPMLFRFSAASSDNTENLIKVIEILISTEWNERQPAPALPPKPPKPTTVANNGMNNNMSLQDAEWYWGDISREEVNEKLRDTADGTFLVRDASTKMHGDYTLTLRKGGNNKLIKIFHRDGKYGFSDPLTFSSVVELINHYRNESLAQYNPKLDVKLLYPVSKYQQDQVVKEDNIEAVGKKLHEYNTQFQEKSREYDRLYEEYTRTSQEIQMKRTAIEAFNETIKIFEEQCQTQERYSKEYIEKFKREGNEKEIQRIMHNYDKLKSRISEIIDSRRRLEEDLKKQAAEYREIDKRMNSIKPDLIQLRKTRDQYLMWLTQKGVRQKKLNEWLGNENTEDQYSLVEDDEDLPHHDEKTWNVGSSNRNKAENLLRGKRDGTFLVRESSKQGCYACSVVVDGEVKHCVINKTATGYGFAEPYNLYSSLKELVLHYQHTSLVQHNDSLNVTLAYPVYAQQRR
Put plainly: PI3Ka Transcreener ADP assay (fluorescence polarization). The class given is biochemical. To be noted: 10 μM ATP, 30 μmol/L lipid substrate; read-out: IC50, inhibition of PI3Kα kinase. Put shortly:
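Transcreener ADP FP assay with PI3Kα (0.2 ng/μL), 30 μmol/L lipid substrate (PIP2) and 10 μM ATP (final) in HEPES pH 7.5 buffer with MgCl2, 0.03% CHAPS, 2% DMSO. 60 min reaction at room temperature, then ADP detection 1.5 h (ex 610/em 670 nm). ADP from standard curve; IC50 fitted.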
On the technique in general: In fluorescence polarisation assays a small probe gives low polarisation when free and higher when bound to something large.

A value given as a limit tells only on which side of the number the result lay.

T1 sequence (P42345 1360-2549 limits assumed): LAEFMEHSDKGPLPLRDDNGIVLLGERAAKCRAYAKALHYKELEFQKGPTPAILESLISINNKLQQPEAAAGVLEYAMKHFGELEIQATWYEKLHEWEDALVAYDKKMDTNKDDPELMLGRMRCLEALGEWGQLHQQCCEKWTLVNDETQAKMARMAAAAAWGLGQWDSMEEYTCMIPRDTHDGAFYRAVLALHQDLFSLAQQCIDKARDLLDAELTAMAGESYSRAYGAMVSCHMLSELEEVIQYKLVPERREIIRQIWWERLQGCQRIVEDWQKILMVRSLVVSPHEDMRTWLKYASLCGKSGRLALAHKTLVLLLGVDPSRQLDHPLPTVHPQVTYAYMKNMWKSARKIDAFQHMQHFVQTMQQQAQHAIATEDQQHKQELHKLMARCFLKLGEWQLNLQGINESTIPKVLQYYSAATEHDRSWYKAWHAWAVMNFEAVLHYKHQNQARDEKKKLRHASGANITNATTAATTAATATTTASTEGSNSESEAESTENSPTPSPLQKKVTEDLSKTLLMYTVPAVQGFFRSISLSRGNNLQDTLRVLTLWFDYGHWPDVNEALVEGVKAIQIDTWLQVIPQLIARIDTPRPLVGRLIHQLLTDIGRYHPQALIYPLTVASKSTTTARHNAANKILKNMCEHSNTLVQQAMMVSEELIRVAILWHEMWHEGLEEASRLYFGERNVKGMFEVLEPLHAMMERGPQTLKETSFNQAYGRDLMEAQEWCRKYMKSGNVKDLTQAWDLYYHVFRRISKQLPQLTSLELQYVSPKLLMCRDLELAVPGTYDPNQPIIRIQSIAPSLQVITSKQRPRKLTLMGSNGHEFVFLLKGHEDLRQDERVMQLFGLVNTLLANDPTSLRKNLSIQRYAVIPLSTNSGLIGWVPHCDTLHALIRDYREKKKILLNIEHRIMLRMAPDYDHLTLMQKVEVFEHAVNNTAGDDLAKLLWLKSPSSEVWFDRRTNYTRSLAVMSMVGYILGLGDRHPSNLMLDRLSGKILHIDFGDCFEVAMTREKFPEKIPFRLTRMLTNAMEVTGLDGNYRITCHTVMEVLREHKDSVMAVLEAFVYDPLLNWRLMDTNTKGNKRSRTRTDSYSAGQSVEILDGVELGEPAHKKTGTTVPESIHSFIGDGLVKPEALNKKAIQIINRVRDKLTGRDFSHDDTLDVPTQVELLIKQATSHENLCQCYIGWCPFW

Turning to `CS(=O)(=O)N1CCC(n2cnc3cnc4ccc(-c5cnc(N)c(C(F)(F)F)c5)nc4c32)CC1` [Compound 103], the 50% inhibitory concentration (IC50) at mTOR kinase and on PI3Kα kinase was under 0.1 µM in each case.

For `CC1(CN2CCC(n3cnc4cnc5ccc(-c6cnc(N)c(C(F)(F)F)c6)nc5c43)CC2)COC1` [Compound 105], the half-maximal inhibitory concentration (IC50) on mTOR kinase and on PI3Kα kinase was under 0.1 µM each time.

For the compound `Nc1ncc(-c2ccc3ncc4ncn(C5CCOCC5)c4c3n2)cc1C(F)(F)F` [Compound 106], the half-maximal inhibitory concentration (IC50) at mTOR kinase and at PI3Kα kinase was under 0.1 µM in each case.

Consider `C[C@H](O)C(=O)N1CCC(n2cnc3cnc4ccc(-c5cnc(N)c(C(F)(F)F)c5)nc4c32)CC1` [Compound 107], for which the IC50 at mTOR kinase and on PI3Kα kinase was under 0.1 µM in each case.

On to `Cc1nc2cnc3ccc(-c4cnc(N)c(C(F)(F)F)c4)nc3c2n1C1CCN(C(=O)C2CC2)CC1` [Compound 119, (4-(8-(6-amino-5-(trifluoromethyl)pyridine-3yl)-2-methyl-1H-imidazo[4,5-c][1,5]naphthyridin-1-yl)piperidin-1-yl)(cyclopropyl)methanone], for which the 50% inhibitory concentration (IC50) at mTOR kinase and at PI3Kα kinase was under 0.1 µM in each case.

For `CCC(=O)N1CCC(n2c(C)nc3cnc4ccc(-c5cnc(N)c(C(F)(F)F)c5)nc4c32)CC1` [Compound 120], the IC50 on mTOR kinase and at PI3Kα kinase was under 0.1 µM each time.

Turning to `Cc1nc2cnc3ccc(-c4cnc(N)c(C(F)(F)F)c4)nc3c2n1C1CCN(CC2(C)COC2)CC1` [Compound 121], the IC50 at mTOR kinase and on PI3Kα kinase was under 0.1 µM each time.

On to `Cc1nc2cnc3ccc(-c4cnc(N)c(C(F)(F)F)c4)nc3c2n1C1CCN(C(=O)[C@H](C)O)CC1` [Compound 122], for which the IC50 on mTOR kinase and at PI3Kα kinase was under 0.1 µM each time.

With `Cc1nc2cnc3ccc(-c4cnc(N)c(C(F)(F)F)c4)nc3c2n1C1CCN(CC(=O)N(C)C)CC1` [Compound 123], the IC50 on mTOR kinase and on PI3Kα kinase was under 0.1 µM each time.

For `Cc1nc2cnc3ccc(-c4cnc(N)c(C(F)(F)F)c4)nc3c2n1C1CCN(CCO)CC1` [Compound 129], the IC50 on mTOR kinase and on PI3Kα kinase was under 0.1 µM in each case.

`CCc1nc2cnc3ccc(-c4cnc(N)c(C(F)(F)F)c4)nc3c2n1C1CCOCC1` [Compound 131]: the IC50 on mTOR kinase and on PI3Kα kinase was under 0.1 µM throughout.

Regarding `COc1ncc(-c2ccc3ncc4nnc(C)n4c3c2)cc1NS(=O)(=O)c1ccc(F)cc1F` [Compound 147, 2,4-difluoro-N-(2-methoxy-5-(1-methyl-[1,2,4]triazolo[4,3-a]quinoxalin-8-yl)pyridin-3-yl)benzenesulfonamide], the half-inhibitory concentration (IC50) on mTOR kinase and at PI3Kα kinase was under 0.1 µM each time.

Take `COc1ncc(-c2ccc3ncc4nn(C)c(=O)n4c3c2)cc1NS(=O)(=O)c1ccc(F)cc1F` [Compound 148]: the concentration for half-maximal inhibition (IC50) at mTOR kinase and at PI3Kα kinase was under 0.1 µM throughout.

In the case of `CCn1nc2cnc3ccc(-c4cnc(OC)c(NS(=O)(=O)c5ccc(F)cc5F)c4)cc3n2c1=O` [Compound 149], the concentration for half-maximal inhibition (IC50) at mTOR kinase and at PI3Kα kinase was under 0.1 µM in each case.

As for `COc1ncc(-c2ccc3ncc4nc(C)n(C)c4c3n2)cc1NS(=O)(=O)c1ccc(F)cc1F` [Compound 151], the IC50 at mTOR kinase and on PI3Kα kinase was under 0.1 µM throughout.

Take `COc1ncc(-c2ccc3ncc4nnc(-c5ccc(F)cc5)n4c3c2)cc1NS(C)(=O)=O` [Compound 152]: the IC50 at mTOR kinase and on PI3Kα kinase was under 0.1 µM throughout.

Regarding `COc1ncc(-c2ccc3ncc4ncn(C)c4c3n2)cc1NS(=O)(=O)c1ccc(F)cc1F` [Compound 153], the half-inhibitory concentration (IC50) at mTOR kinase and at PI3Kα kinase was under 0.1 µM each time.

On to `COc1ncc(-c2ccc3ncc4nnn(C)c4c3n2)cc1NS(=O)(=O)c1ccc(F)cc1F` [Compound 154], for which the concentration for half-maximal inhibition (IC50) at mTOR kinase and on PI3Kα kinase was under 0.1 µM throughout.

Consider `COc1ncc(-c2ccc3ncc4nnc(C)n4c3c2)cc1NS(=O)(=O)C(F)(F)F` [Compound 155], for which the IC50 on mTOR kinase and at PI3Kα kinase was under 0.1 µM throughout.

For `Cc1ncc(-c2ccc3ncc4nnc(C)n4c3c2)cc1NS(=O)(=O)c1ccc(F)cc1F` [Compound 156], the IC50 at mTOR kinase and on PI3Kα kinase was under 0.1 µM each time.

With `COc1ncc(-c2ccc3ncc4nnc(OC)n4c3c2)cc1NS(=O)(=O)c1ccc(F)cc1F` [Compound 157], the IC50 on mTOR kinase and on PI3Kα kinase was under 0.1 µM throughout.

With `COc1ncc(-c2ccc3ncc4nnc(CN(C)C)n4c3c2)cc1NS(=O)(=O)c1ccc(F)cc1F` [Compound 158], the IC50 on mTOR kinase and on PI3Kα kinase was under 0.1 µM in each case.

With `COc1ncc(-c2ccc3ncc4ncn(C)c4c3n2)cc1NS(=O)(=O)C(F)(F)F` [Compound 159], the half-maximal inhibitory concentration (IC50) on mTOR kinase and at PI3Kα kinase was under 0.1 µM throughout.

For the compound `COc1ncc(-c2ccc3ncc4c(c3c2)n(C)c(=O)n4C)cc1NS(=O)(=O)c1ccc(F)cc1F` [Compound 160], the IC50 on mTOR kinase and at PI3Kα kinase was under 0.1 µM in each case.

`COc1ncc(-c2ccc3ncc4nnc(CN(C)C)n4c3c2)cc1NS(=O)(=O)C(F)(F)F` [Compound 165]: the 50% inhibitory concentration (IC50) on mTOR kinase and at PI3Kα kinase was under 0.1 µM throughout.

With `COc1ncc(-c2ccc3ncc4nc(C)n(C)c4c3n2)cc1NS(=O)(=O)C(F)(F)F` [Compound 166], the IC50 at mTOR kinase and at PI3Kα kinase was under 0.1 µM each time.

As for `COc1ncc(-c2ccc3ncc4ncn(CCN(C)C)c4c3n2)cc1NS(=O)(=O)C(F)(F)F` [Compound 178], the IC50 on mTOR kinase and at PI3Kα kinase was under 0.1 µM in each case.

As for `COc1ncc(-c2ccc3ncc4nnc(C)n4c3c2)cc1NS(=O)(=O)c1ccccc1F` [Compound 180], the IC50 on mTOR kinase and on PI3Kα kinase was under 0.1 µM in each case.

`COc1ncc(-c2ccc3ncc4nnc(C)n4c3c2)cc1NS(=O)(=O)c1ccccc1` [Compound 181]: the IC50 on mTOR kinase and at PI3Kα kinase was under 0.1 µM each time.

The values above are taken from patent US9181264B2, “Fused heteroaryls and their uses” (Hutchison MediPharma Limited, priority 2011, dated 2015).
